Common to all, as to format: cell-based, mouse
For experiment [1], the system named is 3T3-L1 adipocytes. Put plainly: Adipogenesis assay with inhibitors of intracellular signaling pathways (AdipoRed Assay Reagent). The protocol: In yet another experiment, to search for the involvement of intracellular signaling factors, the culture fluid was substituted with a culture fluid containing DMEM, which contained 10% FBS and insulin (10 µg/ml), and a vehicle (1% ethanol) or DHMBA (1 or 10 µM) two days after the differentiation culture. The cells were cultured for another two days in a culture fluid containing signaling inhibitory factors, such as genistein (1 or 10 µM), Wortmannin (10 or 100 nM), PD98059 (1 or 10 µM), or Bay 11-7082 (1 or 10 nM). After the cell culture, the amount of intracellular lipid (triglyceride) formation was quantified using AdipoRed Assay Reagent (Lonza, Walkersville, MD, USA) [19 to 21]. Fluorescence was measured at an excitation of 485 nm and an emission of 570 nm using a 96-well plate reader (µQuant, Bio-Tek Instruments).

The test system of experiment [2] is 3T3-L1 preadipocytes. The experiment can be described thus: Cell proliferation assay (count of living cells, trypan blue). As to the method: […] Furthermore, in an experiment to measure cell proliferation, 3T3-L1 preadipocytes (1 × 10^5/ml per well of a 24-well plate) were cultured for three days in a culture fluid containing a vehicle (1% ethanol as the final concentration) or DHMBA (0.1, 1, 10, 100, or 1000 µM).
(§1) After the culture, adhering cells were separated from each well by adding an aseptic solution containing 0.05% trypsin and EDTA (0.1 ml per well) in PBS (Thermo Fisher Scientific, Waltham, MA, USA) not containing Ca^2+/Mg^2+ and incubating the cells for two minutes. Afterward, 0.9 ml of DMEM containing 10% FBS was added to each well to prepare cell suspensions. In order to measure the number of living cells, a medium (0.1 ml) containing suspension cells was mixed with 0.1 ml of 0.5% trypan blue staining solution. The living cells were counted under a microscope (Olympus MTV-3) using a cell counter (Line Seiki H-102P, Tokyo, Japan) and a hemocytometer (Sigma-Aldrich, St. Louis, Missouri). Two counts were averaged in each measurement. The number of cells was shown as the number per well of a culture plate.

Experiment [3] relates to 3T3-L1 preadipocytes. The experiment can be described thus: Cell death assay (number of cells after sub-confluence). The conditions noted are these: 1000 µM, another two days after sub-confluence (Fig. 2C). The protocol:
In an experiment to measure cell death, 3T3-L1 preadipocytes (1×10^5/ml per well of a 24-well plate) were cultured for three days in a DMEM culture fluid containing 10% BCS and 1% P/S. The cells that reached sub-confluence were cultured for another 48 hours in the presence of a vehicle (1% ethanol as the final concentration) or DHMBA (0.1, 1, 10, 100, or 1000 µM) to examine the variation in the number of cells.
as §1

For experiment [4], the system named is 3T3-L1 preadipocytes. The experiment can be described thus: Number of cells in the differentiation process. The conditions noted are these: 1 or 10 µM. As to the method:
In order to understand the influence of DHMBA on the differentiation of 3T3-L1 preadipocytes, 3T3-L1 preadipocytes (5×10^4 cells/ml per well of a 24-well plate) were cultured for three days, at which point they reached sub-confluence, in 10% bovine calf serum (BCS). After the cells reached sub-confluence (on day 0), the culture fluid was changed to a DMEM differentiation-inducing culture fluid containing 10% FBS, 1% P/S, 0.5 mM IBMX, 1 µM dexamethasone, and insulin (10 µg/ml), and the cells were cultured for another two days. Two days later, to promote adipogenesis, the culture fluid was replaced with a fresh differentiation culture fluid of DMEM containing 10% FBS and insulin (10 µg/ml), and the cells were cultured for another two days.
First, to quantify the effect of DHMBA on the number of cells, a vehicle (1% ethanol as the final concentration) or DHMBA (1 or 10 µM) was added to the differentiation-inducing culture fluid on day 0 of differentiation starting culture or after two days. After zero to two days of the differentiation culture or after two to four days of the culture, the number of cells adhered to a culture dish was measured as described in the previous section.

Experiment [5] concerns 3T3-L1 adipocytes. The experiment can be described thus: Fat accumulation assay (Oil Red O staining). The conditions noted are these: 0.1, 1, 10, or 100 µM. As to the method: In order to understand the influence of DHMBA on the differentiation of 3T3-L1 preadipocytes, 3T3-L1 preadipocytes (5×10^4 cells/ml per well of a 24-well plate) were cultured for three days, at which point they reached sub-confluence, in 10% bovine calf serum (BCS). After the cells reached sub-confluence (on day 0), the culture fluid was changed to a DMEM differentiation-inducing culture fluid containing 10% FBS, 1% P/S, 0.5 mM IBMX, 1 µM dexamethasone, and insulin (10 µg/ml), and the cells were cultured for another two days. […]
In an additional experiment to understand the effect of DHMBA on the content of lipids in 3T3-L1 adipocytes, a vehicle (1% ethanol as the final concentration) or DHMBA (0.1, 1, 10, or 100 µM) was included in the differentiation-inducing culture fluid to culture the cells from day 0 of the differentiation-inducing culture to four days later. In order to quantify the lipid content (triglycerides) after the cell culture, the cells in the 24-well plate were gently washed twice with PBS and fixed with 4% formaldehyde dissolved in PBS for 30 minutes. […] Furthermore, in order to quantify the lipid content, the Oil Red stain was extracted with isopropanol. […] The eluate was used to measure the absorbance at 510 nm with a spectrophotometer (µQuant, Bio-Tek Instruments).

For experiment [6], the system named is 3T3-L1 adipocytes. Put plainly: Adipogenesis assay (AdipoRed Assay Reagent). The conditions noted are these: 1, 10, or 100 µM. The protocol:
3T3-L1 preadipocytes (10^4 cells/0.2 ml per well of a 96-well plate) were cultured for three days, at which point they reached sub-confluence, in DMEM containing 10% BCS and 1% P/S. After the sub-confluence (on day 0), the cells were cultured in a differentiation-inducing culture fluid containing 10% FBS, 1% P/S, 0.5 mM IBMX, and 1 µM dexamethasone with the inclusion of a vehicle (1% ethanol as the final concentration) or DHMBA (0.1, 1, 10, or 100 µM). Two days later, the culture fluid was replaced with a DMEM culture fluid containing insulin (10 µg/ml) without containing 10% FBS or DHMBA, and then, the cells were cultured for another two days.
In another experiment, the cells were cultured in a differentiation culture fluid not containing DHMBA on day 0 of differentiation-inducing culture. Two days later, the culture fluid was replaced with a DMEM culture fluid containing 10% FBS and insulin (10 µg/ml) that contained any of a vehicle (1% ethanol as the final concentration) and DHMBA (0.1, 1, 10, or 100 µM), and then, the cells were cultured for another two days.

In experiment [7] the test system is Akt. The experiment can be described thus: Western blotting of protein level in adipocytes. The conditions noted are these: DHMBA 10 µM, day 2 to 4 of differentiation (Fig. 7). The protocol:
(§2) 3T3-L1 preadipocytes (1×10^6 cells/100 mm dish used, in 10 ml of culture fluid) were cultured for three days, at which point they reached sub-confluence, in DMEM containing 10% BCS and 1% P/S. Then, the cells were cultured for two days in a DMEM differentiation culture fluid containing 10% FBS, 1% P/S, 0.5 mM IBMX, and 1 µM dexamethasone. […] After the culture, the culture dish was washed three times with cold PBS (10 ml) to eliminate floating cells and dead cells, and adhering cells were scraped using a cell lysis solution containing protease and protein phosphatase inhibitors (Roche Diagnostics, Indianapolis, IN, USA). Next, the cell lysates were centrifuged for 10 minutes at 17,000 × g at 4°C. The concentration of proteins in the supernatant was quantified using Bio-Rad Protein Assay Dye (Bio-Rad Laboratories, Inc., Hercules, CA, USA) with bovine serum albumin as a standard. The extracted protein samples were stored at -80°C until they were used.
(§3) As indicated in the previous invention, a sample of 40 micrograms of supernatant proteins per lane was separated by SDS polyacrylamide gel electrophoresis (SDS-PAGE, 12%) and transferred to a PVDF membrane. Specific antibodies for target proteins, such as PPARγ (C26H12) (catalog No. 2435, rabbit antibody), C/EBPα (catalog No. 2295, rabbit), phosphoinositide 3-kinase p110α (PI3K; catalog No. 4255), Akt (catalog No. 9272, rabbit antibody), mitogen-activated protein kinase (MAPK; catalog No. 4695, rabbit antibody), phosphorylated MAPK (catalog No. […]) 4370, rabbit antibody), mechanistic target of rapamycin (mTOR, catalog No. 4517, mouse antibody), NF-κB p65 (catalog No. 3034, rabbit antibody), and β-actin (catalog No. 3700, rabbit antibody), were obtained from Cell Signaling Technology (Danvers, MA, USA). The PVDF membrane was incubated overnight at 4°C using the above protein antibodies for immunoblotting.
(§4) After the incubation, the PVDF membrane was incubated at room temperature for 60 minutes in a horseradish peroxidase-conjugated secondary antibody (Santa Cruz Biotechnology, Inc., mouse sc-2005 or rabbit sc-2305; 1:1,000 dilution). Protein bands transferred to the PVDF membrane were detected on an X-ray film using a chemiluminescent substrate (catalog No. 34577, Thermo Scientific, Rockford, IL, USA). Four independent experiments were conducted for data, their films were scanned with an Epson Perfection 1660 photo scanner, and the bands were quantified using ImageJ2 software (National Institutes of Health, Bethesda, MD, USA).
For orientation: Immunoblotting shows a protein as a band on a membrane.

Experiment [8] relates to C/EBPα. The experiment can be described thus: Western blotting of protein level in adipocytes. The conditions noted are these: DHMBA 10 µM, day 2 to 4 of differentiation (Fig. 7). The protocol: as §2, §3, §4
For experiment [9], the system named is MAPK. Put plainly: Western blotting of protein level in adipocytes. The conditions noted are these: DHMBA 10 µM, day 2 to 4 of differentiation (Fig. 7). The protocol:
as §2, §3, §4

For experiment [10], the system named is NF-κB p65. The experiment can be described thus: Western blotting of protein level in adipocytes. The conditions noted are these: DHMBA 10 µM, day 2 to 4 of differentiation (Fig. 7). As to the method:
as §2, §3, §4

Experiment [11] relates to PI3 kinase 100α. Put plainly: Western blotting of protein level in adipocytes. The conditions noted are these: DHMBA 10 µM, day 2 to 4 of differentiation (Fig. 7). The protocol:
as §2, §3, §4

For experiment [12], the system named is PPARγ. The experiment can be described thus: Western blotting of protein level in adipocytes. The conditions noted are these: DHMBA 10 µM, day 2 to 4 of differentiation (Fig. 7). The protocol: as §2, §3, §4
Experiment [13] deals with mTOR. The experiment can be described thus: Western blotting of protein level in adipocytes. The conditions noted are these: DHMBA 10 µM, day 2 to 4 of differentiation (Fig. 7). The protocol: as §2, §3, §4
The subject of experiment [14] is phosphorylated MAPK. The experiment can be described thus: Western blotting of protein level in adipocytes. The conditions noted are these: DHMBA 10 µM, day 2 to 4 of differentiation (Fig. 7). As to the method: as §2, §3, §4

Turning to `O=c1c(-c2ccc(O)cc2)coc2cc(O)cc(O)c12` [genistein, reference compound], the lipogenesis result in experiment [1] (genistein 1 or 10 µM alone, two days from day 2 of differentiation (Fig. 6A)) is “not altered”.
Take `Cc1ccc(S(=O)(=O)C=CC#N)cc1` [Bay 11-7082, reference compound]: the adipogenesis result in experiment [1] (Bay 11-7082 1 or 10 nM (Fig. 6D)) is “inhibited”.
For the compound `COc1c(O)cc(CO)cc1O` [DHMBA, 3,5-dihydroxy-4-methoxybenzyl alcohol], the Cell proliferation result is listed as “suppressed” in experiment [2] (DHMBA 10 µM, culture for three to five days (Fig. 2A)) and “suppressed” in experiment [2] (cultured for three days, concentrations ranging from 1 µM to 1000 µM (Fig. 2B)). For the same compound, the “number of cells (cell death)” value in experiment [3] is “reduced”. Moreover, the number of cells entry in experiment [4] (day 0 to 2 in culture fluid with differentiation-inducing factors (Fig. 3B)) and in [4] (day 2 to 4 in culture fluid containing insulin (Fig. 3C)) was “not varied” throughout. In experiment [5] (on day 0 and after two days of differentiation culture (Fig. 4A)), the “lipid accumulation (Oil Red O stained images)” value was “reduced”. The “lipid content in the cells (absorbance at 510 nm)” value in experiment [5] (on day 0 and after two days of differentiation culture (Fig. 4B)) is given as “decrease”. In addition, the adipogenesis entry in [6] (two to four days after the differentiation, late stage (Fig. 5C)) is listed as “suppression”; in experiment [6] (zero to four days after the differentiation (Fig. 5A)) it was “suppressed”; in experiment [6] (zero to two days after the differentiation (Fig. 5B)), “suppression”; in experiment [1] (DHMBA 1 or 10 µM in the presence of genistein (Fig. 6A)) it was “inhibited”. Moreover, the inhibition of adipogenesis entry in experiment [1] (DHMBA 1 or 10 µM in the presence of Bay 11-7082 1 or 10 nM (Fig. 6D)), in experiment [1] (DHMBA 1 or 10 µM in the presence of PD98059 1 or 10 µM (Fig. 6C)) and in experiment [1] (DHMBA 1 or 10 µM in the presence of Wortmannin 10 or 100 nM (Fig. 6B)) was “further enhanced” in each case. For the same compound, the “level of Akt” value in experiment [7] is given as “reduction”. The “level of C/EBPα” value in [8] is reported as “reduced”. In experiment [9], the “level of MAPK” value is recorded as “reduction”. For the same compound, the “level of NF-κB p65” value in [10] is recorded as “reduced”. Further, in [11], the “level of PI3 kinase 100α” value is reported as “reduction”. Also, the “level of PPARγ” value in experiment [12] is “reduced”. In experiment [13], the “level of mTOR” value was “reduction”. Besides, the “level of phosphorylated MAPK” value in [14] is given as “reduction”.
As for `COC[C@H]1OC(=O)c2coc3c2[C@@]1(C)C1=C(C3=O)[C@@H]2CCC(=O)[C@@]2(C)C[C@H]1OC(C)=O` [Wortmannin, reference compound], in experiment [1], the adipogenesis entry is on record as “inhibited”.
As to `COc1cccc(-c2cc(=O)c3ccccc3o2)c1N` [PD98059, reference compound], the adipogenesis result in [1] (PD98059 1 or 10 µM (Fig. 6C)) is reported as “inhibited”.

For the origin of these results see patent EP4726029A1, “ADIPOCYTE GROWTH INHIBITOR” (Watanabe Oyster Laboratory Co., Ltd., priority 2023, dated 2024).
